Test results: patent US10464926B2, “Heterobicyclic compounds and their use for the treatment of tuberculosis” (OTSUKA PHARMACEUTICAL CO., LTD., priority 2014, dated 2019)

melting point [°C]	SMILES
221.5 to 222	O=C1CCc2c(OCC3(O)[C@H](O)CN(c4c(F)cc(Cl)cc4F)C[C@H]3O)ccc(F)c2N1 (relative stereo)
197.9 to 199.6	Cc1ccc(N2CCC(O)(COc3ccc(F)c4c3CCC(=O)N4)CC2)nc1C
200.7 to 201.4	CCCOc1cc(N2CCC(O)(COc3ccc(F)c4c3CCC(=O)N4)CC2)c(F)cc1Cl
200.5 to 200.8	O=C1CCc2c(OCC3(O)CCN(c4c(F)cc(Br)cc4F)CC3)cc(F)c(Cl)c2N1
201 to 204	O=C1CCc2c(OC[C@]3(O)CCN(c4c(F)cc(Cl)cc4F)C[C@H]3O)cc(F)c(Cl)c2N1 (relative stereo) [Example 277]
193	O=C1CCc2c(OCC3(O)CCN(c4ccc(OCc5ccccc5)cc4F)CC3)ccc(F)c2N1
199 to 199.6	O=C1CCc2c(OC[C@]3(O)CCN(c4c(F)cc(Br)cc4F)C[C@H]3O)cc(F)c(Cl)c2N1
178.6 to 178.7	O=C1CCc2c(OCC3(O)CCN(c4c(F)cc(OCC(F)(F)F)cc4F)CC3)ccc(Cl)c2N1
181	Cc1ccc(N2CCC(O)(COc3ccc(F)c4c3CCC(=O)N4)CC2)cc1
128.1	CCOc1cccc(N2CCC(O)(COc3ccc(F)c4c3CCC(=O)N4)CC2)c1
185 to 186.4	O=C1CCc2c(OC[C@]3(O)CCN(c4ccc(Cl)cc4F)C[C@H]3O)ccc(Cl)c2N1 [Example 328]
258.8 to 259	Cc1cc(Cl)cc(F)c1N1CCC(O)(COc2ccc(F)c3c2CCC(=O)N3)CC1
228.7 to 228.9	COc1cc(N2CCC(O)(COc3ccc(Cl)c4c3CCC(=O)N4)CC2)c(F)cc1Cl
190 to 191	O=C1CCc2c(OCC3CCN(c4ncc(Cl)cc4Cl)CC3)ccc(Cl)c2N1
180.2 to 180.6	O=C1CCc2c(OC[C@]3(O)CCN(c4cc(F)c(Cl)cc4Cl)C[C@H]3O)ccc(Cl)c2N1
156 to 156.1	O=C1CCc2c(OCC3(O)CCN(c4cc(CCOc5ccc(F)cc5)c(Cl)cc4F)CC3)ccc(F)c2N1
156 to 157	CN(CC1(O)CCN(c2ccc(Cl)cc2Cl)CC1)c1ccc(F)c2c1CCC(=O)N2
162.9 to 164.1	CN(C)CCOc1cc(N2CCC(O)(COc3ccc(F)c4c3CCC(=O)N4)CC2)c(F)cc1Cl
225 to 226	O=C1CCc2c(NCC3(O)CCN(c4ccc(Cl)cc4F)CC3)ccc(F)c2N1
209.5 to 210.2	O=C1CCc2c(OCC3(O)CCN(c4ccc5sccc5c4)CC3)ccc(F)c2N1
193.8 to 194.5	O=C1CCc2c(OCC3(O)CCN(c4ccc5sccc5c4)CC3)ccc(Cl)c2N1
186.9 to 187.2	O=C1CCc2c(OCC3(O)CCN(c4ccc(Oc5ccccc5)cc4)CC3)ccc(F)c2N1
206 to 206.9	N#Cc1cc(F)ccc1N1CCC(O)(COc2ccc(F)c3c2CCC(=O)N3)CC1
191 to 193	O=C1CCc2c(OC[C@]3(O)CCN(c4c(F)cc(Br)cc4F)C[C@H]3O)ccc(F)c2N1 (relative stereo) [Example 301]
214 to 215	Cc1cc(Cl)ccc1N1CCC(O)(COc2ccc(F)c3c2CCC(=O)N3)CC1
190.4 to 190.5	O=C1CCc2c(OCC3(O)CCN(c4cc(OC(F)(F)F)ccc4Cl)CC3)ccc(F)c2N1

melting point [°C]	SMILES
215.7 to 216	O=C1CCc2c(OCC3(O)CCN(c4ccc5occc5c4)CC3)ccc(F)c2N1
276 to 277	O=C1CCc2c(OCC3(C(=O)O)CCN(c4ncc(Cl)cc4Cl)CC3)ccc(F)c2N1
194.7 to 194.8	O=C1CCc2c(OC[C@@]3(O)CCN(c4ccc(Br)cc4F)C[C@H]3O)ccc(F)c2N1
230.9 to 231.2	O=C1CCc2c(OCC3(O)CCN(c4ccc(Cl)c(Cl)c4)CC3)ccc(F)c2N1
159.2 to 160	O=C1CCc2c(OCC3(O)CCN(c4cc(OCCOc5ccc(F)cc5)c(Cl)cc4F)CC3)ccc(F)c2N1
220.5 to 221.3	O=C1CCc2c(OC[C@]3(O)CCN(c4ccc(Cl)cc4F)C[C@H]3O)cc(F)c(F)c2N1 (relative stereo) [Example 330]
189.8 to 189.9	O=C1CCc2c(OCC3(O)CCN(c4c(F)cc(OCC(F)(F)F)cc4F)CC3)ccc(F)c2N1
216 to 216.3	O=C1CCc2c(OC[C@]3(O)CCN(c4cc(Cl)c(F)cc4Cl)C[C@H]3O)ccc(F)c2N1
163 to 163.3	CC(C)c1ccccc1N1CCC(O)(COc2ccc(F)c3c2CCC(=O)N3)CC1
213.4 to 213.5	O=C1CCc2c(OCC3(O)CCN(c4cc5c(cc4F)OC(F)(F)O5)CC3)ccc(Cl)c2N1
192.2 to 193.2	O=C1CCc2c(OC[C@]3(O)CCN(c4ccc(F)cc4Cl)C[C@H]3O)cc(F)c(F)c2N1
203.6 to 203.7	O=C1CCc2c(OC[C@]3(O)CCN(c4c(F)cc(Br)cc4F)C[C@H]3O)ccc(Cl)c2N1 [Example 326]
197 to 199	O=C1CCc2c(OC[C@]3(O)CCN(c4c(F)cc(Cl)cc4F)C[C@H]3O)ccc(Cl)c2N1
215 to 218	O=C1CCc2c(OC[C@]3(O)CCN(c4c(F)cc(F)cc4Cl)C[C@H]3O)ccc(F)c2N1 (relative stereo) [Example 303]
197 to 198	O=C1CCc2c(OC[C@]3(O)CCN(c4c(F)cc(Br)cc4F)C[C@H]3O)ccc(F)c2N1 [Example 302]
207.8 to 208.7	O=C1CCc2ccc(OCC3(O)CCN(c4ccc(Cl)cc4F)CC3)cc2N1
172.6 to 172.7	O=C1CCc2c(OCC3(O)CCN(c4c(F)cc(OC(F)F)cc4F)CC3)ccc(F)c2N1
156 to 157	CCNC(=O)O[C@@H]1CN(c2ccc(Cl)cc2F)CC[C@@]1(O)COc1ccc(F)c2c1CCC(=O)N2
231.2 to 233.5	O=C1CCc2c(OCC3(O)CCN(c4ncc(Br)cc4F)CC3)ccc(Cl)c2N1
169 to 170	O=C1CCc2c(OCC3(O)CCN(c4cccc(Cl)c4)CC3)ccc(F)c2N1
208.6 to 208.8	Cc1cc(N2CCC(O)(COc3ccc(F)c4c3CCC(=O)N4)CC2)c(F)cc1Cl
191.9 to 192.2	CC(C)Oc1ccc(N2CCC(O)(COc3ccc(F)c4c3CCC(=O)N4)CC2)c(F)c1
184.7 to 184.8	CCCc1cc(N2CCC(O)(COc3ccc(F)c4c3CCC(=O)N4)CC2)c(F)cc1F
176.5 to 176.9	CC(C)c1ccc(N2CCC(O)(COc3ccc(F)c4c3CCC(=O)N4)CC2)c(Cl)c1
201.3 to 202.4	CCc1cc(N2CCC(O)(COc3ccc(F)c4c3CCC(=O)N4)CC2)c(F)cc1Cl
171 to 172	CCOC(=O)O[C@@H]1CN(c2ccc(Cl)cc2F)CC[C@@]1(O)COc1ccc(F)c2c1CCC(=O)N2

melting point [°C]	SMILES
233	O=C1CCc2c(cccc2OC[C@]2(O)CCN(c3c(F)cc(Cl)cc3F)C[C@H]2O)N1 (relative stereo) [Example 349]
197.4 to 197.5	O=C1CCc2c(OC[C@]3(O)CCN(c4cc5c(cc4F)OC(F)(F)O5)C[C@H]3O)ccc(F)c2N1 (relative stereo)
198.6 to 198.8	O=C1CCc2c(OC[C@]3(O)CCN(c4ccc(Cl)cc4F)C[C@@H]3O)ccc(F)c2N1
159.4 to 159.5	O=C1CCc2c(OCC3(O)CCN(c4cccc(C(F)(F)F)c4)CC3)ccc(F)c2N1
162.8 to 164	CO[C@H]1CN(c2ncc(Cl)cc2Cl)CC[C@]1(O)COc1ccc(F)c2c1CCC(=O)N2 (relative stereo)
222.6 to 222.7	COc1cc(N2CCC(O)(COc3ccc(F)c4c3CCC(=O)N4)CC2)ccc1Cl
182.4 to 182.5	O=C1CCc2c(OC[C@]3(O)CCN(c4ccc(F)cc4)C[C@H]3O)ccc(F)c2N1 (relative stereo) [Example 336]
237.8 to 238.2	CC(=O)NC1(COc2ccc(F)c3c2CCC(=O)N3)CCN(c2ncc(F)cc2C#N)CC1
204.9	O=C1CCc2c(OCC3(O)CCN(c4ccc(Cl)cc4Br)CC3)ccc(F)c2N1
196.5 to 196.6	CCCc1cc(N2CCC(O)(COc3ccc(F)c4c3CCC(=O)N4)CC2)c(F)cc1Cl
131.1 to 131.3	CC(C)c1cccc(N2CCC(O)(COc3ccc(F)c4c3CCC(=O)N4)CC2)c1
168	O=C1CCc2c(OCC3(O)CCN(c4ccccc4OC(F)(F)F)CC3)ccc(F)c2N1
219.1 to 220	O=C1CCc2cc(OCC3(O)CCN(c4ccc(Cl)cc4F)CC3)ccc2N1
172.5 to 172.7	O=C1CCc2c(OCC3(O)CCN(c4ncc(C(F)(F)F)cc4Cl)CC3)ccc(F)c2N1
168.9 to 172.7	O=C1CCc2c(OC[C@H]3CCN(c4cc(F)c(Cl)cc4F)C[C@@H]3O)ccc(F)c2N1 (relative stereo)
216	N#Cc1ccc(N2CCC(O)(COc3ccc(F)c4c3CCC(=O)N4)CC2)cc1
182.1 to 182.4	CCOc1cc(N2CCC(O)(COc3ccc(Cl)c4c3CCC(=O)N4)CC2)c(F)cc1F
161.3 to 161.4	O=C1CCc2c(OC[C@]3(O)CCN(c4ccccc4Cl)C[C@H]3O)ccc(F)c2N1
194 to 195	O=C1CCc2c(OC[C@]3(O)CCN(c4ccc(Cl)cc4F)C[C@H]3F)ccc(F)c2N1 (relative stereo)
231.6 to 232.9	O=C1CCc2c(cccc2OCC2(O)CCN(c3ccc(Cl)cc3F)CC2)N1
204 to 205	O=C1CCc2c(OC[C@]3(O)CCN(c4ccc(F)cc4Cl)C[C@@H]3F)ccc(F)c2N1 (relative stereo)
175.6 to 176.1	O=C1CCc2c(OCC3(O)CCN(c4c(F)cc(F)cc4F)CC3)ccc(Cl)c2N1
214 to 216	O=C1CCc2c(OC[C@]3(O)CCN(c4ccc(Br)cc4F)C[C@H]3O)cc(F)c(F)c2N1 (relative stereo)
207.9 to 208.8	CCOc1cc(F)c(N2CCC(O)(COc3ccc(F)c4c3CCC(=O)N4)CC2)c(F)c1
195.7 to 196.4	COc1cc(F)c(N2CCC(O)(COc3ccc(F)c4c3CCC(=O)N4)CC2)c(F)c1
223 to 223.3	O=C1CCc2c(OCC3(O)CCN(c4cc(OCCF)c(Cl)cc4F)CC3)ccc(Cl)c2N1
